US20140018384A1, “QUINOLINONE DERIVATIVES FOR USE IN THE TREATMENT OF AN AUTOIMMUNE DISEASE AND/OR AN INFLAMMATORY DISEASE” (PRONOXIS AB, priority 2011, published 2014)
Read-outs that look alike come from different tables or passages of the source.

Tested on: PLB-985 cells
Assay: ROS production (isoluminol/HRP luminescence) in PLB-985 cells, Biological Example 1
Format: cell-based
Procedure: To cells (HL-60 or PLB-985) in HBSS medium was added compound (25 or 50 μM), isoluminol and Horse Radish Peroxidase, fraction II. Luminescence was measured for 10-30 minutes and the area under the […] curve was divided by that from a control experiment to give the activity expressed as fold change.
Each assay indicated below was performed at a different site, at a different time, by different personnel and/or using different cell lines, concentrations and controls. The cell line, concentration of example compound and control used in respect of each assay were as indicated below. The values obtained from these different setups (each using an otherwise identical assay) are given as Activity A, B, C, D or E in Table 5 below. The values are expressed as fold increase of NADPH activity in the presence of the relevant of compound (as indicated below) compared to the relevant control (as indicated below).
Activity A: HL-60 cells; 50 μM compound vs. blank Activity B: PLB-985 cells; 25 μM compound vs. blank Activity C, D and E: PLB-985 cells; 25 μM compound vs. DMSO

[1] = 25 μM compound vs. DMSO, setup C, read-out: Activity C (fold increase of NADPH activity compared to control)
[2] = 25 μM compound vs. blank, read-out: Activity B (fold increase of NADPH activity compared to control)
[3] = 25 μM compound vs. DMSO, setup D, read-out: Activity D (fold increase of NADPH activity compared to control)

Row | Structure (SMILES) | fold induction at 25 µM [1] | fold induction at 25 µM [2] | fold induction at 25 µM [3]
1 | CCOc1ccc(C(=O)c2cn(CC(=O)Nc3ccc(OC)cc3OC)c3cc4c(cc3c2=O)OCO4)cc1 [Example 65, N-(2,4-Dimethoxyphenyl)-2-[3-(4-ethoxybenzoyl)-6,7-methylenedioxy-4-oxo-1-quinolinyl]acetamide] | 2.8 | 4.1 | 
2 | CCOc1ccc(C(=O)c2cn(CC(=O)Nc3ccc4c(c3)OCCO4)c3cc4c(cc3c2=O)OCO4)cc1 [Example 66, 2-[3-(4-Ethoxybenzoyl)-6,7-methylenedioxy-4-oxo-1-quinolinyl]-N-(3,4-ethylenedioxyphenyl)acetamide] | 2.5 | 2.7 | 
3 | CCOc1ccc(C(=O)c2cn(CC(=O)Nc3ccc(F)c(F)c3)c3cc4c(cc3c2=O)OCO4)cc1 [Example 67, N-(3,4-Difluorophenyl)-2-[3-(4-ethoxybenzoyl)-6,7-methylenedioxy-4-oxo-1-quinolinyl]acetamide] | 1.8 | 2.3 | 
4 | COc1cccc(NC(=O)Cn2cc(C(=O)c3ccccc3)c(=O)c3cc4c(cc32)OCO4)c1 [Example 68, N-(m-Anisyl)-2-(3-benzoyl-6,7-methylenedioxy-4-oxo-1-quinolinyl)acetamide] | 6.7 | 10.1 | 
5 | COc1cccc(NC(=O)Cn2cc(C(=O)c3ccc(Cl)cc3)c(=O)c3cc4c(cc32)OCO4)c1 [Example 69, N-(m-Anisyl)-2-[3-(4-chlorobenzoyl)-6,7-methylenedioxy-4-oxo-1-quinolinyl]acetamide] | 4 | 4.6 | 
6 | CCOc1ccc(NC(=O)Cn2cc(C(=O)c3ccc(C)cc3)c(=O)c3cc4c(cc32)OCO4)cc1 [Example 70, N-(4-Ethoxyphenyl)-2-(6,7-methylenedioxy-4-oxo-3-p-toluoyl-1-quinolinyl)acetamide] | 25.4 | 33.2 | 
7 | CCOc1ccc(NC(=O)Cn2cc(C(=O)c3ccc(CC)cc3)c(=O)c3cc4c(cc32)OCO4)cc1 [Example 71, N-(4-Ethoxyphenyl)-2-[3-(4-ethylbenzoyl)-6,7-methylenedioxy-4-oxo-1-quinolinyl]acetamide] | 25.1 | 43.6 | 
8 | Cc1ccc(C(=O)c2cn(CC(=O)Nc3ccc(F)cc3)c3cc4c(cc3c2=O)OCO4)cc1C [Example 72, 2-[3-(3,4-Dimethylbenzoyl)-6,7-methylenedioxy-4-oxo-1-quinolinyl]-N-(4-fluorophenyl)acetamide] | 33.6 | 62.6 | 
9 | COc1cc(NC(=O)Cn2cc(C(=O)c3ccc(C)c(C)c3)c(=O)c3cc4c(cc32)OCO4)cc(OC)c1 [Example 73, N-(3,5-Dimethoxyphenyl)-2-[3-(3,4-dimethylbenzoyl)-6,7-methylenedioxy-4-oxo-1-quinolinyl]acetamide] | 17.1 | 15.2 | 
10 | Cc1ccc(C(=O)c2cn(CC(=O)Nc3ccc4c(c3)OCCO4)c3cc4c(cc3c2=O)OCO4)cc1C [Example 74, 2-[3-(3,4-Dimethylbenzoyl)-6,7-methylenedioxy-4-oxo-1-quinolinyl]-N-(3,4-ethylenedioxyphenyl)-acetamide] | 20.1 | 38 | 
11 | COc1cccc(NC(=O)Cn2cc(C(=O)c3ccc(C)c(C)c3)c(=O)c3cc4c(cc32)OCO4)c1 [Example 75, N-m-Anisyl-2-[3-(3,4-dimethylbenzoyl)-6,7-methylenedioxy-4-oxo-1-quinolinyl]acetamide] | 5.3 | 7.7 | 
12 | Cc1ccc(C(=O)c2cn(CC(=O)Nc3ccc4c(c3)OCO4)c3cc4c(cc3c2=O)OCO4)cc1C [Example 76, 2-[3-(3,4-Dimethylbenzoyl)-6,7-methylenedioxy-4-oxo-1-quinolinyl]-N-(3,4-methylenedioxyphenyl)-acetamide] | 23.9 | 43.6 | 
13 | COc1ccc(C(=O)c2cn(CC(=O)Nc3cccc(OC)c3)c3cc4c(cc3c2=O)OCO4)cc1 [Example 77] | 2.8 |  | 
14 | CCc1ccc(C(=O)c2cn(CC(=O)Nc3ccc4c(c3)OCO4)c3cc4c(cc3c2=O)OCO4)cc1 [Example 78, 2-[3-(4-Ethylbenzoyl)-6,7-methylenedioxy-4-oxo-1-quinolinyl]-N-(3,4-methylenedioxyphenyl)acetamide] | 11.6 |  | 
15 | O=C(Cn1cc(S(=O)(=O)c2ccccc2)c(=O)c2cc3c(cc21)OCO3)Nc1ccccc1 [Example 79, 2-(3-Benzenesulfonyl-6,7-methylenedioxy-4-oxo-1-quinolinyl)-N-phenylacetamide] | 3.2 |  | 
16 | O=C(Cn1cc(S(=O)(=O)c2ccccc2)c(=O)c2cc3c(cc21)OCO3)Nc1ccc(F)cc1 [Example 80, 2-(3-Benzenesulfonyl-6,7-methylenedioxy-4-oxo-1-quinolinyl)-N-(4-fluorophenyl)acetamide] | 3.2 |  | 

Row | Structure (SMILES) | fold induction at 25 µM [1] | fold induction at 25 µM [2] | fold induction at 25 µM [3]
17 | O=C(Cn1cc(C(=O)c2ccc(F)cc2)c(=O)c2cc3c(cc21)OCO3)Nc1ccc2c(c1)OCCO2 [Example 81, N-(3,4-Ethylenedioxyphenyl)-2-[3-(4-fluorobenzoyl)-6,7-methylenedioxy-4-oxo-1-quinolinyl]acetamide] | 22.6 |  | 
18 | CCc1ccc(NC(=O)Cn2cc(S(=O)(=O)c3ccccc3)c(=O)c3cc4c(cc32)OCO4)cc1 [Example 82, 2-(3-Benzenesulfonyl-6,7-methylenedioxy-4-oxo-1-quinolinyl)-N-(4-ethylphenyl)acetamide] | 5.9 |  | 
19 | O=C(Cn1cc(S(=O)(=O)c2ccc(F)cc2)c(=O)c2cc3c(cc21)OCO3)Nc1ccc(F)cc1 [Example 83, 2-[3-(4-Fluorobenzenesulfonyl)-6,7-methylenedioxy-4-oxo-1-quinolinyl]-N-(4-fluorophenyl)acetamide] | 2 |  | 
20 | COc1ccc(NC(=O)Cn2cc(S(=O)(=O)c3ccccc3)c(=O)c3cc4c(cc32)OCO4)cc1 [Example 85, N-p-Anisyl-2-(3-benzenesulfonyl-6,7-methylenedioxy-4-oxo-1-quinolinyl)acetamide] | 12.2 |  | 
21 | O=C(Cn1cc(C(=O)c2ccc(F)cc2)c(=O)c2cc3c(cc21)OCO3)Nc1ccc2c(c1)OCO2 [Example 86, 2-[3-(4-Fluorobenzoyl)-6,7-methylenedioxy-4-oxo-1-quinolinyl]-N-(3,4-methylenedioxyphenyl)acetamide] | 28.3 | 22.7 | 
22 | COc1ccc(NC(=O)Cn2cc(C(=O)c3ccccc3)c(=O)c3cc4c(cc32)OCO4)cc1 [Example 87, N-p-Anisyl-2-(3-benzoyl-6,7-methylenedioxy-4-oxo-1-quinolinyl)acetamide] | 27.2 |  | 
23 | O=C(Cn1cc(C(=O)c2ccc(Cl)cc2)c(=O)c2cc3c(cc21)OCO3)Nc1ccc2c(c1)OCO2 [Example 88, 2-[3-(4-Chlorobenzoyl)-6,7-methylenedioxy-4-oxo-1-quinolinyl]-N-(3,4-methylenedioxyphenyl)acetamide] | 31.4 |  | 
24 | O=C(Cn1cc(C(=O)c2ccc(F)cc2)c(=O)c2cc3c(cc21)OCO3)Nc1ccc(Cl)cc1 [Example 89, N-(4-Chlorophenyl)-2-[3-(4-fluorobenzoyl)-6,7-methylenedioxy-4-oxo-1-quinolinyl]acetamide] | 34.4 | 33 | 17.1
25 | COc1ccc(NC(=O)Cn2cc(C(=O)c3ccc(Cl)cc3)c(=O)c3cc4c(cc32)OCO4)cc1 [Example 90, N-p-Anisyl-2-[3-(4-chlorobenzoyl)-6,7-methylenedioxy-4-oxo-1-quinolinyl]acetamide] | 37.6 | 40.9 | 
26 | CCOc1ccc2c(c1)c(=O)c(C(=O)c1ccc(F)cc1)cn2CC(=O)Nc1ccc(OC)cc1 [Example 102, N-p-Anisyl-2-[6-ethoxy-3-(4-fluorobenzoyl)-4-oxo-1-quinolinyl]acetamide] |  |  | 2.1
27 | COc1ccc(NC(=O)Cn2cc(C(=O)c3ccccc3)c(=O)c3cc(OC)c(OC)cc32)cc1 [Example 103, N-p-Anisyl-2-(3-benzoyl-6,7-dimethoxy-4-oxo-1-quinolinyl)acetamide] |  |  | 3.7
28 | COc1ccc(NC(=O)Cn2cc(C(=O)c3ccc(Cl)cc3)c(=O)c3cc(OC)c(OC)cc32)cc1 [Example 104, N-p-Anisyl-2-[3-(4-chlorobenzoyl)-6,7-dimethoxy-4-oxo-1-quinolinyl]acetamide] |  |  | 1.4
29 | COc1ccc(NC(=O)Cn2cc(C(=O)c3ccc(F)cc3)c(=O)c3cc(OC)c(OC)cc32)cc1 [Example 105, N-p-Anisyl-2-[6,7-dimethoxy-3-(4-fluorobenzoyl)-4-oxo-1-quinolinyl]acetamide] |  |  | 2
30 | COc1ccc(NC(=O)Cn2cc(C(=O)c3ccc(F)cc3)c(=O)c3cc(F)ccc32)cc1 [Example 106, N-p-Anisyl-2-[6-fluoro-3-(4-fluorobenzoyl)-4-oxo-1-quinolinyl]acetamide] |  |  | 5.6
31 | COc1ccc(NC(=O)Cn2cc(C(=O)c3ccc(F)cc3)c(=O)c3cc(OC)ccc32)cc1 [Example 107, N-p-Anisyl-2-[3-(4-fluorobenzoyl)-6-methoxy-4-oxo-1-quinolinyl]acetamide] |  |  | 6.6
32 | COc1ccc(NC(=O)Cn2cc(C(=O)c3ccc(F)cc3)c(=O)c3cc4c(cc32)OCCO4)cc1 [Example 108, N-p-Anisyl-2-[6,7-ethylenedioxy-3-(4-fluorobenzoyl)-4-oxo-1-quinolinyl]acetamide] |  |  | 1.3
